Drawing on US12234221B2, “Pyridine carboxamide compounds for inhibiting NAV1.8” (Lieber Institute, Inc., priority 2018, dated 2025), this text covers IC50 for 26 compounds.

T1 sequence (Q9Y5Y9 whole entry): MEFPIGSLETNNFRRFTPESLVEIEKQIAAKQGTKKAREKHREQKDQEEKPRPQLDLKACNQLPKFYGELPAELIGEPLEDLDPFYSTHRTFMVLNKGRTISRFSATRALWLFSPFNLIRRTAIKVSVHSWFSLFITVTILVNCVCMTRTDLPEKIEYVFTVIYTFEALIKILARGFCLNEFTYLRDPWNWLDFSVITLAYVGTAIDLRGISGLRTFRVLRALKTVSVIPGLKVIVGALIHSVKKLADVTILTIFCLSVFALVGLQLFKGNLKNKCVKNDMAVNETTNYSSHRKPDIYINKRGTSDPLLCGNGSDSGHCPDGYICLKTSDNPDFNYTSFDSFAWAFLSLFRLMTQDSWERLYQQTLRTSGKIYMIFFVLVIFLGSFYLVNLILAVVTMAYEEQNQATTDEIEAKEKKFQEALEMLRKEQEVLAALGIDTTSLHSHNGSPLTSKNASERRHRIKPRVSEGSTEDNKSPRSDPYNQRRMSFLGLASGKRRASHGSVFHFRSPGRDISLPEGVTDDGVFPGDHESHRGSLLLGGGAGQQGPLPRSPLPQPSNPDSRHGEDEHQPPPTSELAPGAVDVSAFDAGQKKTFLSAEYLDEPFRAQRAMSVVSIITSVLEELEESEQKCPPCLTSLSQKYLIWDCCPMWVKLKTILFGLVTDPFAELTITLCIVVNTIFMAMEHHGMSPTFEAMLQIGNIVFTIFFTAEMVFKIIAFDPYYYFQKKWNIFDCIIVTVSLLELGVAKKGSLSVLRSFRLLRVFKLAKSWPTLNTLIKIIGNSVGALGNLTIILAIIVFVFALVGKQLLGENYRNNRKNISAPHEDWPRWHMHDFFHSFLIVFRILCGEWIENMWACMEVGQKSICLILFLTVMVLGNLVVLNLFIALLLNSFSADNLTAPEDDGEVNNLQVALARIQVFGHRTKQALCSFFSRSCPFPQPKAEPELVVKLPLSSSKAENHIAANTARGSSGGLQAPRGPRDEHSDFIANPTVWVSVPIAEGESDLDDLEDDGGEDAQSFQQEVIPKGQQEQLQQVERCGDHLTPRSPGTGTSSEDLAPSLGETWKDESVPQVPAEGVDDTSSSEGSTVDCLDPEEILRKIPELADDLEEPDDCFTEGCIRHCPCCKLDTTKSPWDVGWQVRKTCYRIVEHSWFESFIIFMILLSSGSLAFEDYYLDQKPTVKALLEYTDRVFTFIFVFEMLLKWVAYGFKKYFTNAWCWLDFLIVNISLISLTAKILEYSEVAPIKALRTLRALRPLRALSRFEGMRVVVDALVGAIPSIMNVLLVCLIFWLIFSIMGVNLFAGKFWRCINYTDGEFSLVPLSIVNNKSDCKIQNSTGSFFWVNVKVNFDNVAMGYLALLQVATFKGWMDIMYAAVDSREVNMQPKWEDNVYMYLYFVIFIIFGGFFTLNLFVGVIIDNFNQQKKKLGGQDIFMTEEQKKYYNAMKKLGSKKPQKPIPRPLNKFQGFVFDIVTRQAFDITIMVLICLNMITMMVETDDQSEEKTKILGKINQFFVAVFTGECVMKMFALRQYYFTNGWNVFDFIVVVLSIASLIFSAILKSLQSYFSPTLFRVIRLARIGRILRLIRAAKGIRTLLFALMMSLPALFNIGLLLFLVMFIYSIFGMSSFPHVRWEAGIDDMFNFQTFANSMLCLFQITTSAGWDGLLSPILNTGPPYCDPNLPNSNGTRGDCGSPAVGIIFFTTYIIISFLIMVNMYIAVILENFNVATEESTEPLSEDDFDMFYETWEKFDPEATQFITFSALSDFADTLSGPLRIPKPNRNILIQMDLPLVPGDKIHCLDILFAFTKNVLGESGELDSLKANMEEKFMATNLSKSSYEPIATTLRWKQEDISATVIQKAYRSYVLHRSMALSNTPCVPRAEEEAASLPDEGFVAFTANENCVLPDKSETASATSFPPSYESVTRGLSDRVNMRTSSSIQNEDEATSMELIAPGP

The experiment has as its target T1, human Nav1.8 (hNav1.8) ion channel (Homo sapiens, UniProt Q9Y5Y9).
T1 construct: expressed in transfected cells; host or cells: HEK293
Nature of the experiment: Nav1.8 channel inhibition, estimated IC50 (one or more of: fluorescence inhibition assay, PatchXpress, IonFlux HT automated patch clamp). Format: cell-based. To be noted: HEK293 cells stably expressing hNav1.8; method used per compound not stated; read-out: Activity range (estimated IC50). The procedure:
The ability of pyridine carboxamide derivatives exemplified above to inhibit the Nav1.8 channel was determined using one or more of the methods described below.
HEK Nav1.8 β1/β2 Stably Expressing Cell Line
A HEK293 cell line stably expressing the human Nav1.8 (hNav1.8) ion channel with β1/β2 subunits was constructed. The cell line is suitable for IC50 determination in fluorescence and electrophysiological based assays. It is also suitable to form mechanism of action pharmacology studies in electrophysiological assays. HEK293 Nav 1.8 cells are grown as adherent monolayers in DMEM/high glucose media, 10% fetal bovine serum, Na pyruvate (2 mM), Hepes (10 mM) with selection agents G418 (400 mg/L) and puromycin (0.5 mg/L) at 37 degrees C., 10% CO2.
Nav 1.8 Fluorescence Inhibition Assay
Compounds were made up to or supplied as a 10-mM stock solution using DMSO as the vehicle. Concentration-response curves were generated using a Matrix multichannel pipettor. Compound source plates were made by diluting 10 mM compound stocks to create 500 μM (100×) solutions in DMSO in 96-well v-bottom plates. Compounds were then serially diluted in 100% DMSO to generate a 5 point, 4-fold dilution scheme dose response curve. 2 μL of the 100× dose response curves was then added to preincubation and stimulation assay plates. 100 μL of pre-incubation buffer and 200 μL of stimulation buffer were then added to the plates resulting in a final assay test concentration range of 5 μM to 0.02 μM with a final DMSO concentration of 1%.
On the day of assay, plates were washed to remove cell culture media using 2K EBSS buffer (135 mM NaCl, 2 mM KCl, 5 mM Glucose, 2 mM CaCl2), 1 mM MgCl2, 10 mM HEPES, pH 7.4). The Na-sensitive fluorescent dye, Asante Natrium Green-2 (ANG-2) is incubated for 60 min to allow equilibration and then washed with 2K EBSS. Plates are the transferred to a fluorescence plate reader (FLIPR™, Molecular Devices) for fluorescence measurement using an excitation wavelength of 490 nm and an emission wavelength of 565 nm. Compounds are pre-incubated at for 5 min at final test concentration in the presence of ouabain (30 μM) to inhibit Na+ efflux through Na+/K+ exchanger. Following the pre-incubation phase, hNav1.8 channels are stimulated with 10 μM of the pyrethroid deltamethrin to prevent channel inactivation. The assay was run for 15 min with vehicle and 30 μM tetracaine serving as negative and positive controls, respectively. The peak change in fluorescence relative to negative and positive control wells was calculated and fit with a logistic equation to determine IC50.
PatchXpress Nav 1.8 Inhibition Assay
HEK-Nav1.8 β1/β2 cells were recorded in whole cell patch-clamp using the PatchXpress automated patch clamp platforms (Molecular Devices). Cells suspensions were obtained by trypsinization of adherent monolayers, followed by gentle rocking for minimally 30 min. Compounds were prepared from 10 mM DMSO stocks.
Nav1.8 channel variants were evaluated using Protocol 1 (FIG. 2) in which cells were initially voltage clamped at a holding potential of −100 mV to maintain Nav1.8 in a closed resting state. After current amplitude becomes stable, the mid-point voltage of steady state inactivation was determined for each cell using a series of 5 sec conditioning steps to increasingly depolarized voltages (−100 to 0 mV) The holding potential was then reset to a voltage that produces ˜50% inactivation (Vhalf−set automatically via PatchXpress scripts) so that closed and inactivated channel inhibition can be assessed. Protocol 1 was run at a frequency of 0.1 Hz until current amplitude is steady (automatically determined by PatchXpress scripts). The effect of test reagent on Nav current amplitude was monitored using custom PatchXpress stability scripts which determines the timing of compound addition and washout. Data were processed and analyzed using DataXpress 2.0 (Molecular Devices). […]
Consider `COc1cc(C)ccc1Oc1ncc(C(F)(F)F)cc1C(=O)Nc1cccc(S(C)(=O)=O)c1` [Example 25, 2-(2-methoxy-4-methyl-phenoxy)-N-(3-methylsulfonylphenyl)-5-(trifluoromethyl)pyridine-3-carboxamide], for which the 50% inhibitory concentration (IC50) is greater than 1000 nM.

Regarding `COc1cc(Cl)ccc1Oc1ncc(C(F)(F)F)cc1C(=O)Nc1cccc(S(C)(=O)=O)c1` [Example 26, 2-(4-chloro-2-methoxy-phenoxy)-N-(3-methylsulfonylphenyl)-5-(trifluoromethyl)pyridine-3-carboxamide], the half-inhibitory concentration (IC50) was less than 500 nM.

Regarding `CC(C)Oc1ccccc1Oc1ncc(C(F)(F)F)cc1C(=O)Nc1cccc(S(C)(=O)=O)c1` [Example 27, 2-(2-isopropoxyphenoxy)-N-(3-methylsulfonylphenyl)-5-(trifluoromethyl)pyridine-3-carboxamide], the IC50 is greater than 1000 nM.

Take `Cc1cccc(C)c1Oc1ncc(C(F)(F)F)cc1C(=O)Nc1cccc(S(C)(=O)=O)c1` [Example 33, 2-(2,6-dimethylphenoxy)-N-(3-methylsulfonylphenyl)-5-(trifluoromethyl)pyridine-3-carboxamide]: the half-maximal inhibitory concentration (IC50) was greater than 1000 nM.

For the compound `CS(=O)(=O)c1cccc(NC(=O)c2cc(C(F)(F)F)cnc2Oc2ccc(F)cc2)c1` [Example 34, 2-(4-fluorophenoxy)-N-(3-methylsulfonyl-phenyl)-5-(trifluoromethyl)pyridine-3-carboxamide], the IC50 was greater than 1000 nM.

For the compound `COc1cc(F)ccc1Oc1ncc(C(F)(F)F)cc1C(=O)Nc1cccc(S(C)(=O)=O)c1` [Example 35, 2-(4-fluoro-2-methoxy-phenoxy)-N-(3-methylsulfonyl-phenyl)-5-(trifluoromethyl)pyridine-3-carboxamide], the half-maximal inhibitory concentration (IC50) is less than 500 nM.

Take `CS(=O)(=O)c1cccc(NC(=O)c2cc(C(F)(F)F)cnc2Oc2ccc(F)cc2Cl)c1` [Example 36, 2-(2-chloro-4-fluoro-phenoxy)-N-(3-methylsulfonyl-phenyl)-5-(trifluoromethyl)pyridine-3-carboxamide]: the IC50 is less than 500 nM.

Take `Cc1cc(OC(F)(F)F)ccc1Oc1ncc(C(F)(F)F)cc1C(=O)Nc1cccc(S(C)(=O)=O)c1` [Example 37, N-(3-methylsulfonyl-phenyl)-2-[2-methyl-4-(trifluoromethoxy)phenoxy]-5-(trifluoromethyl)pyridine-3-carboxamide]: the IC50 was less than 500 nM.

As for `CS(=O)(=O)c1cccc(NC(=O)c2cc(C(F)(F)F)cnc2Oc2ccc(OC(F)(F)F)cc2)c1` [Example 38, N-(3-methylsulfonyl-phenyl)-2-[4-(trifluoromethoxy)phenoxy]-5-(trifluoromethyl)pyridine-3-carboxamide], the IC50 was less than 500 nM.

In the case of `CS(=O)(=O)c1cccc(NC(=O)c2cc(C(F)(F)F)cnc2Oc2ccc(OC(F)F)cc2)c1` [Example 39, 2-[4-(difluoromethoxy)phenoxy]-N-(3-methylsulfonyl-phenyl)-5-(trifluoromethyl)pyridine-3-carboxamide], the IC50 is less than 500 nM.

As to `CS(=O)(=O)c1cccc(NC(=O)c2cc(C(F)(F)F)cnc2Oc2ccc(OC(F)(F)F)c(F)c2)c1` [Example 40, 2-[3-fluoro-4-(trifluoromethoxy)phenoxy]-N-(3-methylsulfonyl-phenyl)-5-(trifluoromethyl)pyridine-3-carboxamide], the 50% inhibitory concentration (IC50) was less than 500 nM.

Regarding `CS(=O)(=O)c1cccc(NC(=O)c2cc(C(F)(F)F)cnc2Oc2ccccc2)c1` [Example 41, N-(3-methylsulfonyl-phenyl)-2-phenoxy-5-(trifluoromethyl)pyridine-3-carboxamide], the IC50 was greater than 1000 nM.

On to `CS(=O)(=O)c1cccc(NC(=O)c2cc(C(F)(F)F)cnc2Oc2cccc(F)c2)c1` [Example 42, 2-(3-fluorophenoxy)-N-(3-methylsulfonyl-phenyl)-5-(trifluoromethyl)pyridine-3-carboxamide], for which the IC50 was 500 to 1000 nM.

Consider `CS(=O)(=O)c1cccc(NC(=O)c2cc(C(F)(F)F)cnc2Oc2cc(F)ccc2F)c1` [Example 43, 2-(2,5-difluorophenoxy)-N-(3-methylsulfonyl-phenyl)-5-(trifluoromethyl)pyridine-3-carboxamide], for which the concentration for half-maximal inhibition (IC50) is 500 to 1000 nM.

For `Cc1ccc(Oc2ncc(C(F)(F)F)cc2C(=O)Nc2cccc(S(C)(=O)=O)c2)cc1` [Example 44, 2-(4-methylphenoxy)-N-(3-methylsulfonyl-phenyl)-5-(trifluoromethyl)pyridine-3-carboxamide], the half-maximal inhibitory concentration (IC50) was greater than 1000 nM.

`CS(=O)(=O)c1cccc(NC(=O)c2cc(C(F)(F)F)cnc2Oc2cc(F)cc(Cl)c2)c1` [Example 45, 2-(3-chloro-5-fluoro-phenoxy)-N-(3-methylsulfonyl-phenyl)-5-(trifluoromethyl)pyridine-3-carboxamide]: the IC50 was greater than 1000 nM.

`CC(C)c1ccccc1Oc1ncc(C(F)(F)F)cc1C(=O)Nc1cccc(S(C)(=O)=O)c1` [Example 46, 2-(2-isopropylphenoxy)-N-(3-methylsulfonyl-phenyl)-5-(trifluoromethyl)pyridine-3-carboxamide]: the IC50 was less than 500 nM.

As to `CS(=O)(=O)c1cccc(NC(=O)c2cc(C(F)(F)F)cnc2Oc2ccc(F)c(F)c2)c1` [Example 47, 2-(3,4-difluorophenoxy)-N-(3-methylsulfonyl-phenyl)-5-(trifluoromethyl)pyridine-3-carboxamide], the IC50 is less than 500 nM.

`CS(=O)(=O)c1cccc(NC(=O)c2cc(C(F)(F)F)cnc2Oc2ccc(F)cc2F)c1` [Example 48, 2-(2,4-difluorophenoxy)-N-(3-methylsulfonyl-phenyl)-5-(trifluoromethyl)pyridine-3-carboxamide]: the 50% inhibitory concentration (IC50) was less than 500 nM.

On to `CS(=O)(=O)c1cccc(NC(=O)c2cc(C(F)(F)F)cnc2Oc2cc(F)cc(F)c2)c1` [Example 49, 2-(3,5-difluorophenoxy)-N-(3-methylsulfonyl-phenyl)-5-(trifluoromethyl)pyridine-3-carboxamide], for which the IC50 is greater than 1000 nM.

Regarding `CS(=O)(=O)c1cccc(NC(=O)c2cc(C(F)(F)F)cnc2Oc2ccc(OCC(F)(F)F)cc2)c1` [Example 50, N-(3-methylsulfonyl-phenyl)-2-[4-(2,2,2-trifluoroethoxy)phenoxy]-5-(trifluoromethyl)pyridine-3-carboxamide], the half-inhibitory concentration (IC50) is less than 500 nM.

As for `CS(=O)(=O)c1cccc(NC(=O)c2cc(C(F)(F)F)cnc2Oc2ccc(SC(F)(F)F)cc2)c1` [Example 51, N-(3-methylsulfonyl-phenyl)-5-(trifluoromethyl)-2-[4-(trifluoromethyl-sulfanyl)phenoxy]pyridine-3-carboxamide], the concentration for half-maximal inhibition (IC50) was less than 500 nM.

Consider `CN(C)c1ccccc1Oc1ncc(C(F)(F)F)cc1C(=O)Nc1cccc(S(C)(=O)=O)c1` [Example 52, 2-[2-(dimethylamino)phenoxy]-N-(3-methylsulfonyl-phenyl)-5-(trifluoromethyl)pyridine-3-carboxamide], for which the 50% inhibitory concentration (IC50) is 500 to 1000 nM.

`CS(=O)(=O)c1cccc(NC(=O)c2cc(C(F)(F)F)cnc2Oc2ccccc2C(F)(F)F)c1` [Example 53, N-(3-methylsulfonyl-phenyl)-5-(trifluoromethyl)-2-[2-(trifluoromethyl)phenoxy]pyridine-3-carboxamide]: the 50% inhibitory concentration (IC50) is less than 500 nM.

`COc1ccc(Oc2ncc(C(F)(F)F)cc2C(=O)Nc2cccc(S(C)(=O)=O)c2)c(OC)c1` [Example 54, 2-(2,4-dimethoxyphenoxy)-N-(3-methylsulfonyl-phenyl)-5-(trifluoromethyl)pyridine-3-carboxamide]: the IC50 is less than 500 nM.

Turning to `CS(=O)(=O)c1cccc(NC(=O)c2cc(C(F)(F)F)cnc2Oc2cc(F)c(F)c(F)c2)c1` [Example 55, N-(3-methylsulfonyl-phenyl)-5-(trifluoromethyl)-2-(3,4,5-trifluorophenoxy)pyridine-3-carboxamide], the concentration for half-maximal inhibition (IC50) is 500 to 1000 nM.

Broadly, the IC50 is the concentration needed to halve the response being measured.
